# How the values were obtained:
# [1] = PPI/NSAID drug substance compatibility: storage of lansoprazole/NSAID mixtures with and without buffer; assay type: physicochemical
# Protocol: Various NSAIDs were combined with lansoprazole with and without a buffer to determine the compatibility of the components. The various mixtures were placed at room temperature and 40° C. with 75% relative humidity. The samples were tested initially and after two weeks at the storage conditions above. The results are reported in Table 1 below as a percent of the theoretical amount of a given component.
# [2] = Potency by HPLC and compatibility on storage of granulations and drug substances; assay type: physicochemical; settings: for Potency 2 Weeks Extreme Conditions, NSAID: 2 weeks at 40° C. with 75% to 85% relative humidity; for Potency 4 Weeks Extreme Conditions, NSAID: 4 weeks at 40° C. with 75% to 85% relative humidity; for Potency 19 Days RT, NSAID: 19 days at room temperature; for Potency 33 Days RT, NSAID: 33 days at room temperature
# Protocol: In this example, granulations of a PPI and various NSAIDs were prepared to determine the compatibility of these substances with each other in a granulated form.
# The potency (mg/g) of each drug substance in each granulation was determined by HPLC.
# Granulations A, C, and D, as well as naproxen and piroxicam drag substances were weighed and separately placed in scintillation vials and stored at room temperature (RT) and at 40° C. with 75% to 85% relative humidity (“Extreme Conditions”). Granulations A, C, and D, as well as the naproxen and piroxicam, were tested for potency of the lansoprazole and NSAID after 19 and 33 days at the room temperature conditions and after two and four weeks under the Extreme Conditions.
SMILES,"% of Theory, 40° C. 75% humidity, lanso ([1]; lansoprazole recovered after two weeks at 40° C. with 75% relative humidity)","% of Theory, Room Temp., lanso ([1]; lansoprazole recovered after two weeks at room temperature)","% of Theory, Initial, lanso ([1]; lansoprazole recovered, initial)","Potency 2 Weeks Extreme Conditions, NSAID [2]","Potency 4 Weeks Extreme Conditions, NSAID [2]","Potency 19 Days RT, NSAID [2]","Potency 33 Days RT, NSAID [2]"
"Cc1c(OCC(F)(F)F)ccnc1C[S+]([O-])c1nc2ccccc2[nH]1 (centres unmarked) [Lansoprazole, lansoprazole]",99.1/NA %,99.1/NA %,100.8/NA %,,,,
"COc1ccc2cc([C@H](C)C(=O)O)ccc2c1 [Naproxen, naproxen]",,,,NA/996.7 mg/g,NA/1000.9 mg/g,NA/997.2 mg/g,NA/998.2 mg/g
"CN1C(C(=O)Nc2ccccn2)=C(O)c2ccccc2S1(=O)=O [Piroxicam, piroxicam]",,,,NA/942.2 mg/g,NA/1005.5 mg/g,NA/1027.1 mg/g,NA/998.5 mg/g

# Reference: US20090075950A1, “Dosage Forms Containing A PPI, NSAID And A Buffer” (Takeda Pharmaceuticals North America, Inc., priority 2002, published 2009)
